In patent US10758534B2 (Vertex Pharmaceuticals Incorporated, priority 2014, dated 2020):

Molecular target: T1, F508del (Homo sapiens, UniProt P13569, DEL508-508)
T1 construct: expressed in transfected cells
Experiment: Protocol 2: FRET membrane potential optical assay (VIPR), identification of correction compounds
Format: cell-based
Details: Table 3; compounds of Table 1 as modulators of CFTR activity; protocol not stated
Outline: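 Mouse NIH3T3 cells, stable F508del; cpd 16 hrs, 37° C., serum-free; pos ctrl 27° C. 16 hrs. Rinse in Krebs Ringers, dye load, then add 10 μM forskolin + 20 μM genistein with Cl^−-free (gluconate) medium; depolarization by FRET voltage dyes.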

T1 sequence (P13569 with tags, fused parts or gaps DEL508-508): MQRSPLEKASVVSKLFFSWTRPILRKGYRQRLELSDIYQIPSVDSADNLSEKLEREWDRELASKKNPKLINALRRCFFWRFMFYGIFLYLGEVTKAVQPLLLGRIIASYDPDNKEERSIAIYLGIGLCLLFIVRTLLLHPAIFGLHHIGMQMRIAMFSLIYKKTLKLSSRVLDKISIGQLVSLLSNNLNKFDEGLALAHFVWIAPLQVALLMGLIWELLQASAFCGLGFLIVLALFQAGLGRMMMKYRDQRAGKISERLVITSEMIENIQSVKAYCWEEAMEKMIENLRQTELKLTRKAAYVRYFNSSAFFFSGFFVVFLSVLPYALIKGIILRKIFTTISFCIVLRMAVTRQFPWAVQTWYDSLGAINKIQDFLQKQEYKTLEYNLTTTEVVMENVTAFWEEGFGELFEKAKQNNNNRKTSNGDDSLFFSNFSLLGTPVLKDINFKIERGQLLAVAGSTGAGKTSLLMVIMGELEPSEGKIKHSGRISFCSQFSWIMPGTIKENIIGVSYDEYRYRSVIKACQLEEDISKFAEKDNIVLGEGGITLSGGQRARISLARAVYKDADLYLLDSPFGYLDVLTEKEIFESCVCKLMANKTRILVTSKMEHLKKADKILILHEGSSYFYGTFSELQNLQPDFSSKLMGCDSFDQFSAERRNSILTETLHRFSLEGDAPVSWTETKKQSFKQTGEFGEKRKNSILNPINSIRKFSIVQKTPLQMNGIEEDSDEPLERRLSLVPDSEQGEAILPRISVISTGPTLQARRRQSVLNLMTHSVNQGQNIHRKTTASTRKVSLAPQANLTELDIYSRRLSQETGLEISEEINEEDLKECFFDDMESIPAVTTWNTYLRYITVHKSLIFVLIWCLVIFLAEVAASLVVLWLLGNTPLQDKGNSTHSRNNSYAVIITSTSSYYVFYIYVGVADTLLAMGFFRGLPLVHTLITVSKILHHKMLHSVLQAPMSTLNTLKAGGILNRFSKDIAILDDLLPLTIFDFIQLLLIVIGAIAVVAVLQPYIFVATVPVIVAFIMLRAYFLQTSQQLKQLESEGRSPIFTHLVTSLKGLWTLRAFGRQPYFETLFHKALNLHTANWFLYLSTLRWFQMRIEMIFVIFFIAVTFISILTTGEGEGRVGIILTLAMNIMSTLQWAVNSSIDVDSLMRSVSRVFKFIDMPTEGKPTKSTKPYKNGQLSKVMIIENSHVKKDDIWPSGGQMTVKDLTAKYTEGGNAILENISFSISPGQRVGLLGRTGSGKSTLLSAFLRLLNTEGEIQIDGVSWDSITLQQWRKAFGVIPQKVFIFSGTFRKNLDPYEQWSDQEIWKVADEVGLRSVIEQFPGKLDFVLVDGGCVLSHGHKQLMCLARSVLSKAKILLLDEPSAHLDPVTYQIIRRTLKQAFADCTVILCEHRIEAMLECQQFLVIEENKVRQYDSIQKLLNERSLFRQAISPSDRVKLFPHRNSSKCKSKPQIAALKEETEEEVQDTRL

| EC30 | SMILES |
| --- | --- |
| +++ (“+++” means <3 uM) | Cc1ccc(Oc2nc3c(cc2C(=O)NS(=O)(=O)c2ccc[nH]c2=O)CCCC3(C)C)c(C)c1 [Compound 634, 2-(2,4-dimethylphenoxy)-8,8-dimethyl-N-[(2-oxo-1H-pyridin-3-yl)sulfonyl]-6,7-dihydro-5H-quinoline-3-carboxamide] |
| ++ (“++” means between 3 uM and 10 uM) | Cc1ccc(-c2nc(C(C)(C)C)ccc2C(=O)NS(=O)(=O)c2cccnc2N)cc1 [Compound 636, N-[(2-amino-3-pyridyl)sulfonyl]-6-tert-butyl-2-(p-tolyl)pyridine-3-carboxamide] |
| ++ (“++” means between 3 uM and 10 uM) | CCOc1ccc(C(=O)NS(=O)(=O)c2cccc(N)n2)c(Oc2c(C)cc(C)cc2C)n1 [Compound 637, N-[(6-amino-2-pyridyl)sulfonyl]-6-ethoxy-2-(2,4,6-trimethylphenoxy)pyridine-3-carboxamide] |
| ++ (“++” means between 3 uM and 10 uM) | Cc1cc(C)c(Oc2nc(-c3ccc(CC#N)cc3)ccc2C(=O)NS(=O)(=O)c2cccc(N)n2)c(C)c1 [Compound 638, N-[(6-amino-2-pyridyl)sulfonyl]-6-[4-(cyanomethyl)phenyl]-2-(2,4,6-trimethylphenoxy)pyridine-3-carboxamide] |
| +++ (“+++” means <3 uM) | CCOc1ccc(-c2ccc(C(=O)NS(=O)(=O)c3cccc(N)n3)c(Oc3ccc(C)cc3C)n2)cc1 [Compound 641, N-[(6-amino-2-pyridyl)sulfonyl]-2-(2,4-dimethylphenoxy)-6-(4-ethoxyphenyl)pyridine-3-carboxamide] |
| ++ (“++” means between 3 uM and 10 uM) | Cc1cc(C)c(Oc2nc(-c3cc(F)cc(OC(C)C)c3)ccc2C(=O)NS(=O)(=O)c2ccc[nH]c2=O)c(C)c1 [Compound 645, 6-(3-fluoro-5-isopropoxy-phenyl)-N-[(2-oxo-1H-pyridin-3-yl)sulfonyl]-2-(2,4,6-trimethylphenoxy)pyridine-3-carboxamide] |
| ++ (“++” means between 3 uM and 10 uM) | CNc1cccc(S(=O)(=O)NC(=O)c2ccc(C)nc2Oc2c(C)cc(C)cc2C)n1 [Compound 646, 6-methyl-N-[[6-(methylamino)-2-pyridyl]sulfonyl]-2-(2,4,6-trimethylphenoxy)pyridine-3-carboxamide] |
| +++ (“+++” means <3 uM) | CCOc1cccc2c1CN(Cc1c(C)cc(C)cc1C)C2(C)C(=O)NS(=O)(=O)c1cccnc1OC (stereo not shown) [Compound 648, 4-ethoxy-N-[(2-methoxy-3-pyridyl)sulfonyl]-1-methyl-2-[(2,4,6-trimethylphenyl)methyl]isoindoline-1-carboxamide] |
| ++ (“++” means between 3 uM and 10 uM) | Cc1cc(C)c(Oc2nc(NC(C)C)ccc2C(=O)NS(=O)(=O)c2cccc(N)n2)c(C)c1 [Compound 650, N-[(6-amino-2-pyridyl)sulfonyl]-6-(isopropylamino)-2-(2,4,6-trimethylphenoxy)pyridine-3-carboxamide] |
| ++ (“++” means between 3 uM and 10 uM) | COc1cc(F)cc(-c2ccc(C(=O)NS(=O)(=O)c3ccc[nH]c3=O)c(Oc3c(C)cc(C)cc3C)n2)c1 [Compound 652, 6-(3-fluoro-5-methoxy-phenyl)-N-[(2-oxo-1H-pyridin-3-yl)sulfonyl]-2-(2,4,6-trimethylphenoxy)pyridine-3-carboxamide] |
| + (“+” means greater than 10 uM) | Cc1ccc(-n2c(C(=O)NS(=O)(=O)c3cccc(N)n3)cc3cc(C)ccc32)cc1 [Compound 653, N-[(6-amino-2-pyridyl)sulfonyl]-5-methyl-1-(p-tolyl)indole-2-carboxamide] |
| +++ (“+++” means <3 uM) | Cc1cc(C)c(Oc2nc(-c3ccccc3)ccc2C(=O)NS(=O)(=O)c2ccc[nH]c2=O)c(C)c1 [Compound 654, N-[(2-oxo-1H-pyridin-3-yl)sulfonyl]-6-phenyl-2-(2,4,6-trimethylphenoxy)pyridine-3-carboxamide] |

Continued, compound first:

| SMILES | EC30 |
| --- | --- |
| Cc1ccc(-c2nc3c(cc2C(=O)NS(=O)(=O)c2ccc(N)nc2)CCCC3(C)C)cc1 [Compound 635, N-[(6-amino-3-pyridyl)sulfonyl]-8,8-dimethyl-2-(p-tolyl)-6,7-dihydro-5H-quinoline-3-carboxamide] | + (“+” means greater than 10 uM) |
| Cc1cccc(C)c1Oc1nc(-c2cc(F)cc(OCC(C)C)c2)ccc1C(=O)NS(=O)(=O)c1cccc(N)n1 [Compound 639, N-[(6-amino-2-pyridyl)sulfonyl]-2-(2,6-dimethylphenoxy)-6-(3-fluoro-5-isobutoxy-phenyl)pyridine-3-carboxamide] | +++ (“+++” means <3 uM) |
| CC(C)COc1cc(F)cc(-c2ccc(C(=O)NS(=O)(=O)c3cccc(N)n3)c(OCC3CCO3)n2)c1 (stereo not shown) [Compound 640, N-[(6-amino-2-pyridyl)sulfonyl]-6-(3-fluoro-5-isobutoxy-phenyl)-2-(oxetan-2-ylmethoxy)pyridine-3-carboxamide] | ++ (“++” means between 3 uM and 10 uM) |
| CC(C)COc1cc(F)cc(-c2ccc(C(=O)NS(=O)(=O)c3ccn[nH]3)c(N3C[C@H](C)C[C@H](C)C3)n2)c1 [Compound 642, 2-[(3R,5S)-3,5-dimethyl-1-piperidyl]-6-(3-fluoro-5-isobutoxy-phenyl)-N-(1H-pyrazol-5-ylsulfonyl)pyridine-3-carboxamide] | +++ (“+++” means <3 uM) |
| CC1CN(c2nc(-c3ccncc3)ccc2C(=O)NS(=O)(=O)c2cccc(N)n2)C(C)(C)C1 (stereo not shown) [Compound 643, N-[(6-amino-2-pyridyl)sulfonyl]-6-(4-pyridyl)-2-(2,2,4-trimethylpyrrolidin-1-yl)pyridine-3-carboxamide] | ++ (“++” means between 3 uM and 10 uM) |
| CCCOc1cc(-c2ccc(C(=O)NS(=O)(=O)c3cccc(N)n3)c(N3CC(C)CC3(C)C)n2)ccc1Cl (stereo not shown) [Compound 644, N-[(6-amino-2-pyridyl)sulfonyl]-6-(4-chloro-3-propoxy-phenyl)-2-(2,2,4-trimethylpyrrolidin-1-yl)pyridine-3-carboxamide] | +++ (“+++” means <3 uM) |
| CC(C)Oc1ccc(-c2ccc(C(=O)NS(=O)(=O)c3cccc(N)n3)c(N3CCC(Cc4ccccc4)C3)n2)cn1 (stereo not shown) [Compound 647, N-[(6-amino-2-pyridyl)sulfonyl]-2-(3-benzylpyrrolidin-1-yl)-6-(6-isopropoxy-3-pyridyl)pyridine-3-carboxamide] | +++ (“+++” means <3 uM) |
| CC(C)(C)c1ccc(C(=O)NS(=O)(=O)c2cccc(N)n2)c(OC2CCCCC2)n1 [Compound 649, N-[(6-amino-2-pyridyl)sulfonyl]-6-tert-butyl-2-(cyclohexoxy)pyridine-3-carboxamide] | ++ (“++” means between 3 uM and 10 uM) |
| CC(C)COc1cc(F)cc(-c2ccc(C(=O)NS(=O)(=O)c3cccc(N)n3)c(N3CCC[C@H](c4ccccc4)C3)n2)c1 [Compound 651, N-[(6-amino-2-pyridyl)sulfonyl]-6-(3-fluoro-5-isobutoxy-phenyl)-2-[(3R)-3-phenyl-1-piperidyl]pyridine-3-carboxamide] | +++ (“+++” means <3 uM) |
| CC(C)COc1cc(F)cc(-c2ccc(C(=O)NS(=O)(=O)c3cccc(N)n3)c(N3CCCC(C4CC4)C3)n2)c1 (stereo not shown) [Compound 655, N-[(6-amino-2-pyridyl)sulfonyl]-2-(3-cyclopropyl-1-piperidyl)-6-(3-fluoro-5-isobutoxy-phenyl)pyridine-3-carboxamide] | +++ (“+++” means <3 uM) |
